Measurements as given in paper PMC8225959, “Clickable Radiocomplexes With Trivalent Radiometals for Cancer Theranostics: In vitro and in vivo Studies” (Frontiers in Medicine, 2021).
Like-named read-outs stand apart in the source and are kept apart here.

How the values were obtained:
[1] = In vivo stability: HPLC analysis of urine of injected mice; conditions: mouse urine, 1 h p.i.
Method: To assess the in vivo stability of the radiocomplexes, samples of blood and urine were collected from the mice injected with the compounds and analyzed by HPLC.
(§1) Blood samples from mice injected with the tested radiocomplexes, collected at sacrifice time, were
(§2) centrifuged, the serum separated and treated with ethanol (1:2 proportion) to precipitate the proteins
(§3) and the supernatant was analyzed by HPLC for stability evaluation. The urine samples were centrifuged
(§4) at 3000 rpm for 10 min and the supernatant was also analyzed by HPLC.

[2] = Lipophilicity, octanol-water partition coefficient by shake-flask method; assay type: physicochemical; conditions: 1-octanol / PBS pH 7.4
Method: Given the limited effect of the pegylated linker on the plasmatic half-life, we focused our successive in vitro stability studies and lipophilicity measurements on the two non-pegylated derivatives [^111In]In-DOTA-Tz and [^111In]In-DOTAGA-Tz. The lipophilicity was evaluated by determination of their partition coefficient log Po/w using the shake-flask method. […] In HS the stability was very good up to 2 h of incubation, but after 4 h of incubation, the degradation started to be quite important with 50 and 30% of the compound degraded for [^111In]In-DOTA-Tz and [^111In]In-DOTAGA-Tz, respectively. […] Taken together, excellent stability of the two [^111In]In-radiocomplexes was observed both in CCM and HS at 37°C for incubation times up to 2 h. […]
Lipophilicity Determination
After phase separation, aliquots

[3] = In vitro stability of [111In]In-radiocomplexes in cell culture media, human serum and PBS at 37 °C (HPLC); assay type: in vitro ADME
Method: Given the limited effect of the pegylated linker on the plasmatic half-life, we focused our successive in vitro stability studies and lipophilicity measurements on the two non-pegylated derivatives [^111In]In-DOTA-Tz and [^111In]In-DOTAGA-Tz. The lipophilicity was evaluated by determination of their partition coefficient log Po/w using the shake-flask method. […] In HS the stability was very good up to 2 h of incubation, but after 4 h of incubation, the degradation started to be quite important with 50 and 30% of the compound degraded for [^111In]In-DOTA-Tz and [^111In]In-DOTAGA-Tz, respectively. […] Taken together, excellent stability of the two [^111In]In-radiocomplexes was observed both in CCM and HS at 37°C for incubation times up to 2 h.
[111In]In-Radiocomplexes: In vitro and in vivo stability
radiolabelled compound dissolved in different media. For the evaluation of the stability in PBS, Cell
times the volume of the desired medium.
The radiocomplexes incubated in Human
The urine samples were centrifuged
during six days by ITLC analysis.

[4] = Biodistribution of [111In]In-radiocomplexes in healthy mice; assay type: in vivo
Method: We performed a biodistribution study of the four [^111In]In-radiocomplexes in healthy mice to determine the clearance rate from systemic blood circulation and the tissue/organ distribution over time. […] The urinary tract was identified as the main excretory pathway since the highest % I.D./g values were found in the kidneys for all the radiocomplexes, associated to rapid radioactivity excretion both at 15 min and 1 h p.i. […] page 9: from whole animal body. Blood samples were taken by cardiac puncture at sacrifice. […] The animals were kept under […] volume of approximate 390 ± 190 mm3. […] […] carried out on groups of 8 mice (n = 4). […] The animals were weighed and dissected.

[5] = cell culture media, 37 °C, up to 24 hours
Method: The in vitro stability of the radiocomplexes was studied by ITLC and HPLC analysis of aliquots of the
Culture Media and Human Serum a suitable volume of the radioactive complexes was diluted into 4
times the volume of the desired medium. The mixtures were incubated at 37 °C and aliquots were taken
at the different time points and analysed by HPLC and ITLC. The radiocomplexes incubated in Human
Serum were first treated with a four-times bigger volume of cold ethanol to induce protein precipitation.
After centrifugation during 10 minutes at 5000 rpm, the supernatants were separated from the pellets
as §1, §2, §3, §4
The in vitro stability of the radioconjugate [111In]-DOTA-Tz-TCO-PEG4-AR was evaluated by
incubation at 37 °C in cell culture media (CCM), in human serum (HS) and in PBS during 24 hours.

in vivo = conditions: male, NodCB17 SCID, mouse, iv, total radioactivity
From the text: from whole animal body. Blood samples were taken by cardiac puncture at sacrifice. Tissue samples of the main organs were then dissected, weighted and counted in a gamma counter (Berthold).
Biodistribution results were expressed as percentage of the injected dose per gram tissue (%I.D./g) in the form of an average with standard deviation (%ID/g; mean ± standard deviation (SD).
Biodistribution in PC3 bearing mice
Male, 5-6 weeks old NodCB17 SCID mice were obtained from Janvier Lab., France. Mice were housed under pathogen-free conditions with food and water ad libitum, and a 12-12 hour light-dark cycle.
Veterinarian staff and investigators observed the mice daily to ensure animal welfare and determine if human endpoints (e.g., hunched and ruffled appearance, apathy, ulceration, severe weight loss, tumour burden) were reached. The mice were subcutaneously injected in the shoulder with 200 µL bolus containing a suspension of […] freshly harvested human prostatic cell line PC3 in Matrigel™ Basement Membrane Matrix (BD Sciences) under anaesthesia with 2% isoflurane. The animals were kept under pathogen-free condition and experiments were performed 2–3 weeks later when a tumour reached a volume of approximate 390 ± 190 mm3. Animals were allocated into treatment groups using a complete […]
The examination of physiological distribution for [90Y]Y-DOTA-Tz were carried out on 4 mice (n = 4). For the control bolus, 0.061 nmol, 0.1 mL, 7.5 µCi of [90Y]Y-DOTA-Tz was intravenously injected by tail vein. The examination of physiological distribution for [90Y]Y-DOTA-Tz-TCO-PEG4-AR were carried out on groups of 8 mice (n = 4). For the control bolus, 0.061 nmo l, 0.1 mL, 7.5 µCi of 90Y-DOTA-Tz TCO-PEG4-AR was intravenously injected by tail vein. At appropriate time points (15 min, 1h or 2h after-injection), the animals were euthanized, tissues of interest were dissected, weighted, and their radioactivity was measured using NaI gamma counter supplied with adapter for the whole-body […]
Biodistribution of 111In-DOTA-Tz-TCO-PEG4-AR was performed by intravenous injection of 100 µL (50 – 75 µCi) of the preparation into mice (n =4) via the tail vein. Immediately after injection, radioactive dosage administered into each animal was measured in a dose calibrator (Capintec CRC25R). For the in vivo click chemistry studies in the same PC3 xenografts (n=3), a bolus of 1 nmol of TCO-PEG4-AR, dissolved in 0.1 mL of saline, was injected in the tail vein, and after 4h the [111In]In-DOTA-Tz (0.1mL, 50 – 75 µCi µCi). After 1 h of administration of the radioactive preparations, the mice groups were sacrificed by cervical dislocation and the radioactivity in the sacrificed animal was measured. The difference between the radioactivity in the injected and the sacrificed animal was assumed to be due to total excretion. The animals were weighed and dissected. Then, tissues of interest were removed, weighed and counted in a γ-counter (Berthold, LB211, Germany).
For all the performed biodistribution studies, selected organs and tissues were assayed for their radioactivity and weighted. The physiological distribution was then calculated and expressed in terms of the percentage of the administrated radioactivity found in each of the selected organs or tissues per gram (%ID/g) in the form of an average with standard deviation (%ID/g; mean ± standard deviation
(1 picture or pasted object on this page, not shown here)

Row | Compound | in vivo stability / metabolization (urine HPLC) [1] | Biodistribution: Blood ([4]; 15 min p.i.) [% I.D./g] | Biodistribution: Bone ([4]; 15 min p.i.) [% I.D./g] | Biodistribution: Heart ([4]; 15 min p.i.) [% I.D./g] | Biodistribution: Intestine ([4]; 15 min p.i.) [% I.D./g] | Biodistribution: Kidney ([4]; 15 min p.i.) [% I.D./g] | Biodistribution: Liver ([4]; 15 min p.i.) [% I.D./g] | Biodistribution: Lung ([4]; 15 min p.i.) [% I.D./g] | Biodistribution: Muscle ([4]; 15 min p.i.) [% I.D./g] | Biodistribution: Pancreas ([4]; 15 min p.i.) [% I.D./g] | Biodistribution: Spleen ([4]; 15 min p.i.) [% I.D./g] | Biodistribution: Stomach ([4]; 15 min p.i.) [% I.D./g] | Excretion ([4]; 15 min p.i.) [% I.D.] | Biodistribution: Blood ([4]; 1 h p.i.) [% I.D./g] | Biodistribution: Bone ([4]; 1 h p.i.) [% I.D./g] | Biodistribution: Heart ([4]; 1 h p.i.) [% I.D./g] | Biodistribution: Intestine ([4]; 1 h p.i.) [% I.D./g] | Biodistribution: Kidney ([4]; 1 h p.i.) [% I.D./g] | Biodistribution: Liver ([4]; 1 h p.i.) [% I.D./g] | Biodistribution: Lung ([4]; 1 h p.i.) [% I.D./g] | also measured
1 | O=C([O-])CN1CCN(CC(=O)[O-])CCN(C(CCC(=O)NCc2ccc(-c3nncnn3)cc2)C(=O)[O-])CCN(CC(=O)[O-])CC1.[111In+3] (centres unmarked) [[111In]In-DOTAGA-Tz] | overall low degree of metabolization | 3.2 ± 0.7 | 1.2 ± 0.2 | 0.9 ± 0.2 | 0.4 ± 0.1 | 7.2 ± 0.4 | 1.6 ± 0.4 | 1.9 ± 0.4 | 0.9 ± 0.2 | 0.6 ± 0.1 | 0.6 ± 0.1 | 0.6 ± 0.3 | 62.7 ± 1.5 | 1.1 ± 0.3 | 0.5 ± 0.1 | 0.4 ± 0.1 | 0.26 ± 0.09 | 3.6 ± 1.0 | 1.0 ± 0.3 | 0.8 ± 0.2 | log Po/w [2]: −3.44 ± 0.29; stability in PBS ([3]; PBS, 24 h at 37°C): > 85%; level of degradation in CCM ([3]; cell culture media, 37°C, after 24 h): 70%; stability in CCM ([3]; cell culture media, 37°C, first 4 h of incubation): very good stability; stability in HS ([3]; human serum, 37°C, 24 h of incubation): almost completely degraded; compound degraded in HS ([3]; human serum, 37°C, after 4 h of incubation): 30%; stability in HS ([3]; human serum, 37°C, up to 2 h of incubation): very good; Biodistribution: Muscle ([4]; 1 h p.i.): 0.27 ± 0.07 % I.D./g; Biodistribution: Pancreas ([4]; 1 h p.i.): 0.3 ± 0.1 % I.D./g; Biodistribution: Spleen ([4]; 1 h p.i.): 0.3 ± 0.1 % I.D./g; Biodistribution: Stomach ([4]; 1 h p.i.): 0.3 ± 0.2 % I.D./g; Excretion ([4]; 1 h p.i.): 81.5 ± 5.1 % I.D.; Biodistribution: Kidney ([4]; 1 h p.i., listed as [^111In]In-DOTAGA-Tz): 3.6 ± 1 % I.D./g
2 | O=C([O-])CN1CCN(CC(=O)[O-])CCN(CC(=O)NCCOCCOCCOCCOCCOCCOCCOCCOCCOCCOCCOCCNC(=O)CCCC(=O)NCc2ccc(-c3nncnn3)cc2)CCN(CC(=O)[O-])CC1.[111In+3] [[111In]In-DOTA-PEG-Tz] | overall low degree of metabolization | 3.1 ± 0.4 | 0.78 ± 0.08 | 1.0 ± 0.2 | 0.32 ± 0.05 | 5.8 ± 1.3 | 1.1 ± 0.2 | 1.6 ± 0.3 | 0.9 ± 0.2 | 0.53 ± 0.07 | 0.66 ± 0.28 | 0.5 ± 0.3 | 65.3 ± 5.4 | 0.44 ± 0.07 | 0.11 ± 0.01 | 0.15 ± 0.08 | 0.05 ± 0.01 | 1.9 ± 0.3 | 0.70 ± 0.30 | 0.36 ± 0.04 | Biodistribution: Muscle ([4]; 1 h p.i.): 0.10 ± 0.02 % I.D./g; Biodistribution: Pancreas ([4]; 1 h p.i.): 0.09 ± 0.01 % I.D./g; Biodistribution: Spleen ([4]; 1 h p.i.): 0.18 ± 0.04 % I.D./g; Biodistribution: Stomach ([4]; 1 h p.i.): 0.09 ± 0.02 % I.D./g; Excretion ([4]; 1 h p.i.): 93.6 ± 0.8 % I.D.; Excretion ([4]; 1 h p.i., listed as [^111In]In-DOTA-PEG-Tz): above 90 % I.D.
3 | CC(C)C[C@H](NC(=O)C[C@H](O)[C@H](CC(C)C)NC(=O)[C@H](Cc1c[nH]cn1)NC(=O)CNC(=O)[C@@H](NC(=O)[C@H](C)NC(=O)[C@H](Cc1c[nH]c2ccccc12)NC(=O)[C@H](CCC(N)=O)NC(=O)[C@@H](Cc1ccccc1)NC(=O)CCOCCOCCOCCOCCNC(=O)OC1CCCC2=CNN=C(c3ccc(CNC(=O)CN4CCN(CC(=O)O)CCN(CC(=O)O)CCN(CC(=O)O)CC4)cc3)C2CC1)C(C)C)C(N)=O (some centres unmarked) [[111In]In-DOTA-Tz-TCO-PEG4-AR, metal not drawn] | – | – | – | – | – | – | – | – | – | – | – | – | – | – | – | – | – | – | – | – | stability in CCM [5]: excellent stabilities in CCM, with no degradation issues; tissue uptake at 1 h (in vivo; blood): 1.2 ± 0.4 %ID/g; tissue uptake at 1 h (in vivo; bone): 0.5 ± 0.1 %ID/g; tissue uptake at 1 h (in vivo; heart): 0.5 ± 0.3 %ID/g; tissue uptake at 1 h (in vivo; intestine): 1.09 ± 0.08 %ID/g; tissue uptake at 1 h (in vivo; kidney): 3.7 ± 1.1 %ID/g; tissue uptake at 1 h (in vivo; liver): 0.74 ± 0.06 %ID/g; tissue uptake at 1 h (in vivo; lung): 0.7 ± 0.2 %ID/g; tissue uptake at 1 h (in vivo; muscle): 0.3 ± 0.11 %ID/g; tissue uptake at 1 h (in vivo; spleen): 0.4 ± 0.1 %ID/g; tissue uptake at 1 h (in vivo; stomach): 0.9 ± 0.2 %ID/g; tissue uptake at 1 h (in vivo; tumour): 2.5 ± 0.7 %ID/g
